# In the supplement of paper PMC10307832:
# How the values were obtained:
# Test in all cases: relative viability (nuclei count vs DMSO), 5 days (fraction); higher = more cells survive
# Alpelisib + Bortezomib = compound: Cc1nc(NC(=O)N2CCC[C@H]2C(N)=O)sc1-c1ccnc(C(C)(C)C(F)(F)F)c1 [Alpelisib] + CC(C)C[C@H](NC(=O)[C@H](Cc1ccccc1)NC(=O)c1cnccn1)B(O)O [Bortezomib] (partner 0.002 µM)
# Outline: (§1)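 Lung cancer cell lines in 1536-well plates were dosed by pin tool the day after seeding, either with one drug alone or with a fixed anchor-drug dose plus five library-drug doses (not always all listed) in √10 steps. After 5 days, cells were fixed and their nuclei stained in one step (final 0.05% Triton X-100, 1% formaldehyde, 1 ug/ml Hoechst), then counted on 4× images. Relative viability is the nuclei count in treated wells divided by that in vehicle wells. Values are medians of duplicate plates.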
# Vemurafenib + OSI-027 = compound: CCCS(=O)(=O)Nc1ccc(F)c(C(=O)c2c[nH]c3ncc(-c4ccc(Cl)cc4)cc23)c1F [Vemurafenib] + COc1cccc2cc(-c3nc([C@H]4CC[C@H](C(=O)O)CC4)n4ncnc(N)c34)[nH]c12 [OSI-027] (partner 0.5 µM)
# Outline: as §1
# Alpelisib + Tozasertib = compound: Cc1nc(NC(=O)N2CCC[C@H]2C(N)=O)sc1-c1ccnc(C(C)(C)C(F)(F)F)c1 [Alpelisib] + Cc1cc(Nc2cc(N3CCN(C)CC3)nc(Sc3ccc(NC(=O)C4CC4)cc3)n2)n[nH]1 [Tozasertib] (partner 0.1 µM)
# Outline: as §1
# Alpelisib + Palbociclib = compound: Cc1nc(NC(=O)N2CCC[C@H]2C(N)=O)sc1-c1ccnc(C(C)(C)C(F)(F)F)c1 [Alpelisib] + CC(=O)c1c(C)c2cnc(Nc3ccc(N4CCNCC4)cn3)nc2n(C2CCCC2)c1=O [Palbociclib] (partner 0.5 µM)
# Outline: as §1
Cell Line,relative viability (Alpelisib + Bortezomib; first compound 0.04 µM),relative viability (Alpelisib + Bortezomib; first compound 0.1265 µM),relative viability (Alpelisib + Bortezomib; first compound 0.4 µM),relative viability (Alpelisib + Bortezomib; first compound 1.265 µM),relative viability (Alpelisib + Bortezomib; first compound 4 µM),relative viability (Vemurafenib + OSI-027; first compound 0.1 µM),relative viability (Vemurafenib + OSI-027; first compound 1 µM),relative viability (Alpelisib + Tozasertib; first compound 0.04 µM),relative viability (Alpelisib + Tozasertib; first compound 0.1265 µM),relative viability (Alpelisib + Tozasertib; first compound 0.4 µM),relative viability (Alpelisib + Tozasertib; first compound 1.265 µM),relative viability (Alpelisib + Tozasertib; first compound 4 µM),relative viability (Alpelisib + Palbociclib; first compound 0.04 µM),relative viability (Alpelisib + Palbociclib; first compound 0.1265 µM),relative viability (Alpelisib + Palbociclib; first compound 0.4 µM),relative viability (Alpelisib + Palbociclib; first compound 1.265 µM),relative viability (Alpelisib + Palbociclib; first compound 4 µM),relative viability (Vemurafenib + OSI-027; first compound 0.03162 µM),relative viability (Vemurafenib + OSI-027; first compound 0.3162 µM)
IA-LM,0.985,0.794,0.794,0.698,0.728,,,,,,,,,,,,,,
NCI-H1650,0.201,0.22,0.185,0.176,0.169,0.448,0.537,0.464,0.287,0.375,0.332,0.36,0.423,0.275,0.403,0.29,0.298,,
NCI-H322M,1.23,1.06,1.1,1.1,0.857,,0.475,0.496,0.435,0.515,0.383,0.284,0.47,0.493,0.453,0.389,0.309,0.461,
SW 1573,0.898,0.947,1,0.72,0.651,0.591,0.464,0.172,0.149,0.175,0.151,0.166,0.409,0.401,0.366,0.201,0.284,0.582,0.564
HCC-827,1.1,0.904,1.28,1.02,0.942,,0.704,0.462,0.409,0.508,0.398,0.366,0.509,0.489,0.485,0.41,0.386,0.754,0.766
LU99A,1.07,1.12,1.14,0.874,0.614,0.28,0.287,0.283,0.26,0.308,0.259,0.23,0.374,0.379,0.363,0.259,0.22,0.325,0.244
LK-2,,,,,,0.21,0.158,0.158,0.164,0.179,0.167,0.154,0.653,0.645,0.499,0.322,0.314,0.194,0.228
EMC-BAC-2,1.02,1.01,1.22,0.929,0.741,0.382,0.329,0.294,0.255,0.307,0.242,0.242,0.5,0.481,0.505,0.348,0.324,0.38,0.22
NCI-H2342,,,,,,0.561,0.643,0.419,0.473,0.389,0.401,0.367,0.57,0.509,0.518,0.467,0.414,0.621,0.577
NCI-H460,1,0.939,1.13,0.646,0.366,0.623,0.473,0.153,0.44,0.563,0.181,0.241,0.338,0.155,0.166,0.0802,0.114,0.549,0.456
NCI-H441,0.631,0.45,0.531,0.329,0.385,0.476,0.418,0.629,0.537,0.693,0.418,0.366,0.225,0.166,0.182,0.14,0.111,0.57,0.584
NCI-H661,0.668,0.933,0.833,0.593,0.651,0.559,0.688,0.369,0.362,0.348,0.337,0.323,0.365,0.367,0.411,0.412,0.359,0.673,0.658
NCI-H727,0.806,0.693,0.988,0.759,0.465,0.561,0.526,0.749,0.584,0.641,0.575,0.459,0.569,0.584,0.702,0.452,0.523,0.571,1.08
NCI-H1651,0.913,0.921,0.913,0.886,0.745,0.725,0.829,0.636,0.651,0.708,0.653,0.607,0.512,0.514,0.594,0.483,0.484,0.733,0.698
NCI-H1355,1.15,1.23,1.29,1.09,0.961,0.341,0.351,0.539,0.489,0.528,0.441,0.373,0.403,0.412,0.377,0.341,0.267,0.41,0.386
NCI-H1793,,,,,,,0.3,0.275,0.383,0.312,0.169,0.188,0.367,0.287,0.332,0.324,0.245,0.274,0.316
NCI-H1666,0.837,0.695,0.882,0.591,0.423,0.802,0.929,0.668,0.63,0.636,0.519,0.528,0.681,0.606,0.693,0.571,0.493,0.845,0.98
NCI-H838,0.692,0.482,0.668,0.782,0.487,0.404,0.436,0.279,0.25,0.277,0.215,0.247,0.246,0.222,0.24,0.18,0.182,0.367,
